In patent US20220204577A1, “Synthetic Peptides With Affinity for the Interleukin-10 Receptor, Pharmaceutical Composition and Use Thereof as Immunomodulators for Treating Autoimmune, Inflammatory or Allergic Diseases” (Universidade Federal de Uberlândia, priority 2019, published 2022):
Positions of bridges follow the written chain, without caps; N, C: chain ends. No end group written: not given here.

What was measured:
NFκB = experiment: NFkB expression in Jurkart-Dual reporter cells, peptide pre-treatment then TNF-α; type: cell-based; conditions: peptide 1 hour, then TNF-α 200 ng/ml; all concentrations tested; 12, 24 and 48 hours
Procedure: The assay was then performed using TNF-α as the activating molecule not only in the control, but after a pre-treatment with the synthesized peptides Pep 1, Pep 2, Pep 3, and Pep 4 at various concentrations. […] In the assays shown in FIGS. 3 A, B, and C, NFkB expression analysis was performed in Jurkart-Dual reporter cells. Cells were treated with peptides for 1 hour and TNF-α (200 ng/ml) was added. Luciferase was measured after 12 hours of treatment (FIG. 3A), 24 hours of treatment (FIG. 3B), and 48 hours of treatment (FIG. 3C).

[1] = Dynamic Light Scattering (DLS), aggregation behavior in solution; type: physicochemical
Procedure: The aggregation behavior of peptides Pep 1, Pep 2, Pep 3, and Pep 4 in solution was determined by Dynamic Light Scattering (DLS), as shown in FIG. 1E. All synthetic peptides were approximately 100% monomeric in solution. The measured hydrodynamic radius of the peptides was similar for Pep 1 (0.82 nm), Pep 2 ([…]), Pep 3 (0.79 nm), and Pep 4 (0.86 nm).

[2] = test system: NFκB, IFN, or TLR4 signaling pathways; experiment: Reporter cell lines treated with peptides alone (no activating molecule); type: cell-based; conditions: various concentrations, 12, 24 and 48 hours
Procedure: To investigate the ability of the peptides to interfere with the NFkB, IFN, and TLR4 pathways, reporter cell lines were used. To analyze whether the isolated peptides (without activation molecules) could induce any type of activation, the isolated peptides were tested in the cell lines during 12, 24, and 48 hours of treatment. […] As an example, FIGS. 2A, 2B, and 2C show an analysis of NFkB expression after stimulation with the synthesized peptides described in this report. The cells were treated with the synthesized peptides Pep 1, Pep 2, Pep 3, and Pep 4 at various concentrations for 12, 24, and 48 hours, without activating molecules. Luciferase was then measured after 12 hours of treatment (FIG. 2A), 24 hours of treatment (FIG. 2B), and 48 hours of treatment (FIG. 2C). […] TNF-α (200 ng/mL) was used as a positive control.

[3] = test system: Dendritic cells from mice bone marrow; experiment: Co-stimulatory molecules on bone marrow dendritic cells; type: cell-based; conditions: CD11c+ dendritic cells, 24 hours
Procedure: Dendritic cells from mice bone marrow were isolated to analyze the effect of synthesized peptides Pep 1, Pep 2, Pep 3, and Pep 4 at two concentrations, 1 μM, and 10 μM, on reducing cell activation. […] In the assays, CD11c+CD86 cells (FIG. 8A) and CD11c+CD40+ cells (FIG. 8B) were used after 24 hours of treatment. LPS (100 ng/mL) was used as a positive control. * P<0.05; ** P<0.005.

cell line J774 = experiment: Cytokines production after treatment of cell line J774; type: cell-based; parameters: levels of MCP-1: dose or concentration left out as unconfirmed
Procedure: After 24 hours of treatment, the produced amounts of IL-6, MCP-1, and TNF-α were measured. […] In contrast, when cells were treated with a composition of Pep 1 followed by incubation with LPS (1 mg/ml) for 24 hours to induce an inflammatory response, the peptide was able to decrease the production of IL-6, MCP-1, and TNF-α.
Each decrease was significant compared to cells treated with LPS alone (positive control). * P<0.05; ** P<0.005; *** P<0.0005

TLR4 signaling pathway [4] = experiment: TLR4 signaling pathway (SEAP) in HEK cells, peptide pre-treatment then LPS; type: cell-based; conditions: peptide then LPS; 0.005 μM; 12 hours
Procedure: (§1) HEK cells were used to investigate the ability of the peptides to reduce activation of the TLR4 signaling pathway after 12 hours of treatment.
(§2) In the assay shown in FIG. 7A, the cells were treated with peptides for 1 hour, then LPS (100 ng/ml) was added. SEAP production was measured after 12 hours of treatment. In the assay shown in FIG. 7B, the cells were treated with LPS (100 ng/ml) for 1 hour, then the peptides were added. SEAP production was measured after 12 hours of treatment. LPS (100 ng/mL) was used as positive control and IL-10 (0.4 ng/mL) as negative control. * P<0.05; ** P<0.005; *** P<0.0005.

TLR4 signaling pathway [5] = experiment: TLR4 signaling pathway (SEAP) in HEK cells, LPS pre-treatment then peptides; type: cell-based; conditions: LPS then peptide, 12 hours
Procedure: as §1, §2

[6] = test system: mouse basophilic leukemia cells transfected with the human FcεRI IgE receptor (hRBL); experiment: IgE-mediated release of β-hexosaminidase (basophil degranulation) in hRBL cells; type: cell-based; conditions: 1 μM; versus cells treated with Bet v1 alone; serum from seven birch pollen-allergic donors
Procedure: The effect of Pep 1 on IgE-mediated release was studied using mouse basophilic leukemia cells transfected with the human FcεRI IgE receptor (hRBL). The hRBL cells were sensitized with serum from seven patients allergic to birch pollen. The cells were stimulated with the antigen and its interaction with immobilized IgEs resulting in the release of β-hexosaminidase.
When cells were treated with a composition containing Pep 1 to 1 μM (FIG. 10A) or rIL10 (FIG. 10B), the amount of Bet v 1 required to induce the same amount of degranulation was higher than for cells treated with Bet v1 alone (P<0.05). Amount of rBet v 1 (ng/mL) required to induce half the release of β-hexosaminidase using serum from seven birch pollen-allergic donors after treatment with Pep 1 (A) (P<0.05) and rIL10 (B) * P<0.05.

[7] = test system: T cells from allergic patients; experiment: Proliferation of T cells from allergic patients; type: cell-based; conditions: 10 μM; 24 hours; Bet v 1 positive control
Procedure: To confirm the ability of the synthesized peptides to decrease dendritic cell activation, a composition containing Pep 1 at a concentration of 10 μM was chosen and the proliferation of T cells from allergic patients was measured after 24 hours of treatment. […] Cells were treated with Bet v 1 as a positive control, and an irrelevant peptide (IR) was used as a negative control.

Substance: Pep 1: synthetic peptide with affinity to the Interleukin-10 receptor, SEQ ID No 01, with disulfide bridges (HACSAVIKSSCGGGS; disulfide 3-11 (inferred))
- NFκB activation (NFκB): able to decrease NFκB activation
- hydrodynamic radius [1]: 0.82 nm
- NFkB expression (luciferase) [2]: unable to elicit any response
- expression of CD86+ ([3]; 1 μM): decreased the expression of CD86+
- expression of CD86+ ([3]; 10 μM): decreased the expression of CD86+
- IL-10, IFN-γ, or IL12p70 production (cell line J774; 24 hours of treatment (data not shown)): No interference
- levels of IL-6 (cell line J774; peptide then LPS 24 hours, 1 μM and 10 μM printed beside IL-6, versus LPS alone): significantly reduced
- levels of TNF-α (cell line J774; peptide then LPS 24 hours, 1 μM, 10 μM and 100 μM, versus LPS alone): significantly reduced
- levels of MCP-1 (cell line J774; peptide then LPS 24 hours, versus LPS alone): significantly reduced
- cytokine response to peptide alone (cell line J774; without LPS stimulation (data not shown)): unable to elicit any response
- TLR4 pathway activation (TLR4 signaling pathway [4]): significantly reduced pathway activation
- activation of the TLR4 pathway (TLR4 signaling pathway [5]; 0.001 μM): activation of the TLR4 pathway was more significantly reduced
- activation of the TLR4 pathway (TLR4 signaling pathway [5]; 0.005 μM): activation of the TLR4 pathway was more significantly reduced
- activation of the TLR4 pathway (TLR4 signaling pathway [5]; 0.01 μM): activation of the TLR4 pathway was more significantly reduced
- activation of the TLR4 pathway (TLR4 signaling pathway [5]; 0.05 μM): activation of the TLR4 pathway was more significantly reduced
- activation of the TLR4 pathway (TLR4 signaling pathway [5]; 0.1 μM): activation of the TLR4 pathway was more significantly reduced
- amount of Bet v 1 required to induce the same amount of degranulation [6]: higher
- T cell proliferation [7]: decreased T cell proliferation
